Laboratory results reported in PMC6695355, “Alanine Scanning Studies of the Antimicrobial Peptide Aurein 1.2” (Probiotics and Antimicrobial Proteins, 2018).
In brackets after ≈: the same amount, converted by molar mass. Where two headings read alike, the source gives them in different places. Where a SMILES comes first, the peptide text is derived from it.

Columns and labels:
[1] = test system: S. aureus ATCC 25923 biofilm formation; format: cell-based, Staphylococcus aureus; conditions: ATCC 25923, 24 h
Procedure: (§1) The minimum inhibitory concentrations (MICs) of test compounds were assessed by broth microdilution method on 96-well plates, according to the guidelines of Clinical and Laboratory Standards Institute (CLSI). For this purpose, reference strains of bacteria: S. aureus ATCC 25923, E. faecalis PCM 2673, E. coli ATCC 25922, and P. aeruginosa ATCC 9027; and fungus: C. albicans ATCC 10231 were used (The Polish Collection of Microorganism, Polish Academy of Sciences, Wrocław, Poland). Bacteria at initial inoculums of 0.5 × 10^5 CFU/mL in Mueller Hinton Broth (MHB), and fungi at initial inoculums of 2 × 10^3 CFU/mL in RPMI-1640, were exposed to the compounds over the concentration range of 1–512 μg/mL. The polystyrene plates were incubated at 37 °C for 18 h with bacteria and for 24 h with C. albicans. The MIC was taken as the lowest concentration at which a noticeable growth of microorganisms was inhibited. Minimum biofilm eradication concentrations (MBECs) were determined using a previously described protocol. For this purpose, 96-well polystyrene flat-bottom plates and a resazurin (7-hydroxy-3H-phenoxazin-3-one 10-oxide) were used. In this assay, a specific feature of resazurin is utilized, which upon the contact with living cells is metabolized and reduced from the basic blue form to pink resorufin. Briefly, 24-h cultures of microorganisms were diluted 1,000-fold and 100 μL of that suspension was added into the test plates. After 24 h of incubation at 37 °C, the wells of the plates were rinsed three times with phosphate buffer saline (PBS) to remove non-adherent cells. Subsequently, 100 μL of test compounds in concentration range (diluted in appropriate media) were added to each well. After 24 h of incubation at 37 °C, 20 μL of the resazurin (4 mg/mL) was added. The MBEC was read after 1 h. Additionally, anti-adhesive properties of the compounds were also analyzed. The assay was conducted on 96-well polystyrene flat-bottom plates. The preparation of inoculums was followed by a 500-fold dilution of 24-h cultures of microorganisms. Briefly, to evaluate the effect of the peptides in preventing biofilm formation, 50 μL of compounds in concentration range, diluted in appropriate medium, were prepared. Subsequently, the 50 μL of the bacterial/fungal inoculums were added to reach the same microbial density as that in MBEC assay. After 24 h of incubation at 37 °C, the wells were rinsed three times with PBS and the fresh media with resazurin (0.6 mg/mL) were added. Then, after 1 h of incubation, the minimum biofilm inhibitory concentrations (MBIC) were read. MBECs as well as MBICs were determined as the lowest concentration at which the reduction of resazurin was lower or equal (10% ± 0.5%) as compared to positive (100%) and negative (0%) controls. All experiments were performed in triplicate.

[2] = test system: S. aureus ATCC 25923 biofilm; format: cell-based, Staphylococcus aureus; conditions: ATCC 25923, 24 h
Procedure: as §1

S. aureus ATCC 25923 = format: cell-based, Staphylococcus aureus; conditions: ATCC 25923, 18 h
Procedure: as §1

[3] = test system: E. faecalis PCM 2673 biofilm formation; format: cell-based, Enterococcus faecalis; conditions: 24 h
Procedure: as §1

[4] = test system: E. faecalis PCM 2673 biofilm; format: cell-based, Enterococcus faecalis; conditions: 24 h
Procedure: as §1

E. faecalis PCM 2673 = format: cell-based, Enterococcus faecalis; conditions: PCM 2673, 18 h
Procedure: as §1

[5] = test system: E. coli ATCC 25922 biofilm formation; format: cell-based, Escherichia coli; conditions: ATCC 25922, 24 h
Procedure: as §1

[6] = test system: E. coli ATCC 25922 biofilm; format: cell-based, Escherichia coli; conditions: ATCC 25922, 24 h
Procedure: as §1

E. coli ATCC 25922 = format: cell-based, Escherichia coli; conditions: ATCC 25922, 18 h
Procedure: as §1

[7] = test system: P. aeruginosa ATCC 9027 biofilm formation; format: cell-based, Pseudomonas aeruginosa; conditions: ATCC 9027, 24 h
Procedure: as §1

[8] = test system: P. aeruginosa ATCC 9027 biofilm; format: cell-based, Pseudomonas aeruginosa; conditions: ATCC 9027, 24 h
Procedure: as §1

P. aeruginosa ATCC 9027 = format: cell-based, Pseudomonas aeruginosa; conditions: ATCC 9027, 18 h
Procedure: as §1

[9] = test system: C. albicans ATCC 10231 biofilm formation; format: cell-based, Candida albicans; conditions: ATCC 10231, 24 h
Procedure: as §1

[10] = test system: C. albicans ATCC 10231 biofilm; format: cell-based, Candida albicans; conditions: ATCC 10231, 24 h
Procedure: as §1

C. albicans ATCC 10231 = format: cell-based, Candida albicans; conditions: ATCC 10231, 24 h
Procedure: as §1

[11] = test system: human red blood cells (RBCs); test: Hemolysis assay; format: cell-based
Procedure: The hemolytic activity of the peptides was determined using fresh human red blood cells (RBCs) collected from a healthy human donor according to the procedure described in the literature. Fresh RBCs with EDTA as anticoagulant were rinsed three times with a PBS by centrifugation at 800×g for 10 min and resuspension in PBS. Serial dilution of the peptides in PBS (1–256 μg/mL) on 96-well polystyrene plates was prepared and the stock solution of RBCs was added up to a final volume of 100 μL with a 4% concentration of erythrocytes (v/v). The control wells for 0 and 100% hemolysis contained of RBCs suspended in PBS and 1% of Triton-X 100, respectively. Subsequently, the plates were incubated for 1 h at 37 °C and then centrifuged at 800×g for 10 min at 4 °C (Sorvall ST 16R Centrifuge, Thermo Scientific). After centrifugation, the supernatant was carefully […] to new microtiter plates and the release of hemoglobin was measured at 540 nm (Multiskan™ GO Microplate Spectrophotometer, Thermo Scientific). All experiments were conducted in triplicate.

in vitro = in vitro ADME; conditions: bovine, serum
Procedure: To assess serum stability, the peptides (0.5 mg) were dissolved in 4 mL of 25% (v/v) fetal bovine serum (FBS) in PBS and incubated at 37 °C. The aliquots of 100 μL of the test samples were transferred to 96-well polystyrene plates in triplicate for each time point. Samples were quenched at zero time (t0) and after 6 h of incubation at 37 °C by addition of 100 μL of ice-cold acetonitrile and stored at 4 °C for 10 min. Afterwards, the samples were centrifuged at 13,000×g for 20 min at 4 °C and diluted 1:1 with HPLC-grade water. All samples were analyzed using the Waters Alliance e2695 system with Waters Acquity QDa Detector (software–Empower®3). Analyses were conducted on an Agilent Zorbax SB-C18 RP-18 column (4.6 × 50 mm, 1.8-μm particle size, 80-Å pore size) using a linear 30–60% acetonitrile (B) gradient in deionized water (A) over 6 min at 25.0 ± 0.1 °C, at a flow rate of 0.5 mL/min and MS working in selected ion recording (SIR) mode (A—0.1% aqueous formic acid (FA) and B—0.1% FA in acetonitrile). The percentage of peptide remaining intact was calculated from peak areas of samples at t0 and after 6 h of incubation in serum (the % of remaining peptide = peak area after 6 h/peak area at t0). The mass-to-charge ratios selected for SIR mode were based on values obtained from full spectrum analysis of each peptide and are presented in Table 1.

| Compound | MBIC, S. aureus ATCC 25923 [1] [µg/mL] | MBEC, S. aureus ATCC 25923 [2] [µg/mL] | MIC, S. aureus ATCC 25923 (S. aureus ATCC 25923) [µg/mL] | MBIC, E. faecalis PCM 2673 [3] [µg/mL] | MBEC, E. faecalis PCM 2673 [4] [µg/mL] | MIC, E. faecalis PCM 2673 (E. faecalis PCM 2673) [µg/mL] | MBIC, E. coli ATCC 25922 [5] [µg/mL] | MBEC, E. coli ATCC 25922 [6] [µg/mL] | MIC, E. coli ATCC 25922 (E. coli ATCC 25922) [µg/mL] | MBIC, P. aeruginosa ATCC 9027 [7] [µg/mL] | MBEC, P. aeruginosa ATCC 9027 [8] [µg/mL] | MIC, P. aeruginosa ATCC 9027 (P. aeruginosa ATCC 9027) [µg/mL] | MBIC, C. albicans ATCC 10231 [9] [µg/mL] | MBEC, C. albicans ATCC 10231 [10] [µg/mL] | MIC, C. albicans ATCC 10231 (C. albicans ATCC 10231) [µg/mL] | Percentage of hemolysis at 1 μg/mL ([11]; red cells of human, 1 h) [%] | Percentage of hemolysis at 4 μg/mL ([11]; red cells of human, 1 h) [%] | Percentage of hemolysis at 8 μg/mL ([11]; red cells of human, 1 h) [%] | Percentage of hemolysis at 16 μg/mL ([11]; red cells of human, 1 h) [%] | Percentage of hemolysis at 32 μg/mL ([11]; red cells of human, 1 h) [%] | other results |
| --- | --- | --- | --- | --- | --- | --- | --- | --- | --- | --- | --- | --- | --- | --- | --- | --- | --- | --- | --- | --- | --- |
| CC[C@H](C)[C@H](NC(=O)[C@H](C)NC(=O)[C@H](Cc1ccccc1)NC(=O)[C@H](CC(C)C)NC(=O)CN)C(=O)N[C@H](C(=O)N[C@@H](CCCCN)C(=O)N[C@@H](CCCCN)C(=O)N[C@H](C(=O)N[C@@H](C)C(=O)N[C@@H](CCC(=O)O)C(=O)N[C@@H](CO)C(=O)N[C@@H](Cc1ccccc1)C(N)=O)[C@@H](C)CC)[C@@H](C)CC [Peptide D4A] (H-GLFAIIKKIAESF-NH2) | 16 | 16 | 16 (≈ 11.1 µM) | 32 | 128 | 32 (≈ 22.3 µM) | 8 | 32 | 8 (≈ 5.57 µM) | 64 | 512 | 64 (≈ 44.6 µM) | 2 | 512 | 64 (≈ 44.6 µM) | 0.2 | 0.3 | 0.3 | 0.3 | 1.5 | Percentage of hemolysis at 2 μg/mL ([11]; red cells of human, 1 h, 2): 0.3%; Percentage of hemolysis at 64 μg/mL ([11]; red cells of human, 1 h): 6.6%; Percentage of hemolysis at 128 μg/mL ([11]; red cells of human, 1 h): 23.2%; Percentage of hemolysis at 256 μg/mL ([11]; red cells of human, 1 h): 61.0%; remaining at 6 h, 0.125 mg/mL (in vitro): 44% |
| CC[C@H](C)[C@H](NC(=O)[C@H](CCCCN)NC(=O)[C@H](CCCCN)NC(=O)[C@@H](NC(=O)[C@@H](NC(=O)[C@H](CC(=O)O)NC(=O)[C@H](Cc1ccccc1)NC(=O)[C@H](CC(C)C)NC(=O)CN)[C@@H](C)CC)[C@@H](C)CC)C(=O)N[C@@H](C)C(=O)N[C@@H](C)C(=O)N[C@@H](CO)C(=O)N[C@@H](Cc1ccccc1)C(N)=O [Peptide E11A] (H-GLFDIIKKIAASF-NH2) | 32 | 16 | 32 (≈ 22.5 µM) | 32 | > 512 | 32 (≈ 22.5 µM) | 16 | 64 | 16 (≈ 11.3 µM) | 64 | 512 | 64 (≈ 45 µM) | 4 | > 512 | 32 (≈ 22.5 µM) | 0.1 | 0.2 | 0.1 | 0.1 | 0.4 | Percentage of hemolysis at 2 μg/mL [11]: 17.4%; Percentage of hemolysis at 64 μg/mL ([11]; red cells of human, 1 h): 2.9%; Percentage of hemolysis at 128 μg/mL ([11]; red cells of human, 1 h): 11.9%; Percentage of hemolysis at 256 μg/mL ([11]; red cells of human, 1 h): 40.2%; remaining at 6 h, 0.125 mg/mL (in vitro): 17% |
| CC[C@H](C)[C@H](NC(=O)[C@H](CCCCN)NC(=O)[C@H](CCCCN)NC(=O)[C@@H](NC(=O)[C@@H](NC(=O)[C@H](CC(=O)O)NC(=O)[C@H](C)NC(=O)[C@H](CC(C)C)NC(=O)CN)[C@@H](C)CC)[C@@H](C)CC)C(=O)N[C@@H](C)C(=O)N[C@@H](CCC(=O)O)C(=O)N[C@@H](CO)C(=O)N[C@@H](Cc1ccccc1)C(N)=O [Peptide F3A] (H-GLADIIKKIAESF-NH2) | >512 | > 512 | 512 (≈ 365 µM) | 256 | > 512 | 256 (≈ 182 µM) | 256 | 256 | 128 (≈ 91.2 µM) | 512 | > 512 | 512 (≈ 365 µM) | 4 | > 512 | 128 (≈ 91.2 µM) | 0.1 | 0.0 | 0.0 | 0.0 | 0.0 | Percentage of hemolysis at 2 μg/mL ([11]; red cells of human, 1 h, 2): 0.1%; Percentage of hemolysis at 64 μg/mL ([11]; red cells of human, 1 h): 0.0%; Percentage of hemolysis at 128 μg/mL ([11]; red cells of human, 1 h): 0.0%; Percentage of hemolysis at 256 μg/mL ([11]; red cells of human, 1 h): 0.3%; remaining at 6 h, 0.125 mg/mL (in vitro): 38% |
